Assay results taken from patent US11672775B2, “Treprostinil prodrugs” (United Therapeutics Corporation, priority 2016, dated 2023).

Key:
Sprague Dawley rats [1] = assay: Rat intraplantar injection model, clinical observation score (Example 9); format: in vivo, Sprague Dawley rat
Experimental: (§1) Male Sprague Dawley rats (n=112) were allocated into 14 groups of 8/group. The study was run in 2 cycles, on consecutive days, 7 groups per cycle. Each cycle was composed of a Saline group, PBS group, which served as the control, and also treprostinil at a dose of 100 μg/mL or 1 μg/mL.
(§2) Animals were administered 0.1 mL of test material by subcutaneous injection into the paw pad (Intraplantar injection) at time zero. Animals were subsequently evaluated for their response to mechanical (von Frey filaments) and thermal stimuli, 15 and 90 minutes post-injection. The von Frey test was conducted prior to the thermal test, which followed immediately within minutes for each animal. In addition, clinical observation scoring of the animal's reaction to injection was conducted. FIG. 16 schematically illustrates the study design.
A Clinical observation score was assigned by assessing for redness, swelling and paw placement.

DP1 receptor = target: T1, DP1 receptor (Homo sapiens, UniProt Q13258); assay: cAMP assay (TR-FRET or HTRF kit, forskolin), Examples 5 and 6; format: cell-based; conditions: Table 3 (Example 5); read-out: EC50, DP receptor
T1 construct: expressed in transfected cells
T1 sequence (Q13258 1-359): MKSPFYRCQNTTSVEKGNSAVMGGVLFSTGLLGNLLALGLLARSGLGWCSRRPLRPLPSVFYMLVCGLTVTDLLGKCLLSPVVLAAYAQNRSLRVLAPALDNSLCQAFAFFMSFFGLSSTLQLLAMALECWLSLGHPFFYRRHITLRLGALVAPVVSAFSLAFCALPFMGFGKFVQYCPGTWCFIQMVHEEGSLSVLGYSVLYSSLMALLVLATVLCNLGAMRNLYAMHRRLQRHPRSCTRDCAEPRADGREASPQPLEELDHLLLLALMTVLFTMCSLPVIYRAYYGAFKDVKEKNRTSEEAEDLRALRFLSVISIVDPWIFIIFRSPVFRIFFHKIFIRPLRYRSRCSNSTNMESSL
Experimental: [table] Prodrug XV (for structure see FIG. 10) as well as treprostinil were tested for 3 G-protein-coupled receptors (GPCRs), namely DP1, EP2, and IP, using cyclic adenosine monophosphate (cAMP) assay. Cyclic AMP assay kits: Multiscreen™ TR-FRET cAMP 1.0 No Wash Assay Kit (Multispan, Inc., Cat #MSCM01-25) and HTRF cAMP HiRange Kit (CisBio, Cat #62AM6PEC). Instruments: FlexStation III (Molecular Devices). Cyclic AMP (cAMP) Assay: cAMP assays were performed according to the manufacturer's protocol using Multiscreen™ TR-FRET cAMP 1.0 No Wash Assay Kit or HTRF cAMP HiRange Kit. […] The reaction was terminated by sequentially adding sequentially adding trFluor™ Eu-labeled cAMP and trFluor™ 650-labeled anti-cAMP antibody or D2-labeled cAMP and cryptate-labeled anti-cAMP antibody in lysis buffer. The plate was then incubated at room temperature for 60 minutes before reading fluorescent emissions at 620 nm and 665 or 668 nm with excitation at 314 nm on FlexStation III (Molecular Devices). Cyclic AMP (cAMP) assays: Cyclic AMP assay results are shown as “Ratio 665/620×10,000” (ratio of fluorescence at 665 nm and 620 nm×10,000) or “Ratio 668/620×10,000” (ratio of fluorescence at 668 nm and 620 nm×10,000). Data in graphs were represented in Mean±SD. Dose-dependent responses were fitted with sigmoidal dose-response curves allowing variable slopes using GraphPad Prism versions 4, 5 or 6 (Graphpad Prism). Treprostinil Prodrug XIV (for structure see FIG. 10) as well as treprostinil were tested for 3 G-protein-coupled receptors (GPCRs), namely DP1, EP2, and IP, using cyclin adenosine monophosphate (cAMP) assay. Cyclic AMP assay kits: Multiscreen™ TR-FRET cAMP 1.0 No Wash Assay Kit (Multispan, Inc., Cat #MSCM01-25) and HTRF cAMP HiRange Kit (CisBio, Cat #62AM6PEC). Cyclic AMP (cAMP) Assay: cAMP assays were performed according to the manufacturer's protocol using Multiscreen™ TR-FRET cAMP 1.0 No Wash Assay Kit or HTRF cAMP HiRange Kit. […] The reaction was terminated by sequentially adding sequentially adding trFluor™ Eu-labeled cAMP and trFluor™ 650-labeled anti-cAMP antibody or D2-labeled cAMP and cryptate-labeled anti-cAMP antibody in lysis buffer. The plate was then incubated at room temperature for 60 minutes before reading fluorescent emissions at 620 nm and 665 or 668 nm with excitation at 314 nm on FlexStation III (Molecular Devices). Cyclic AMP (cAMP) assays: Cyclic AMP assay results are shown as “Ratio 665/620×10,000” (ratio of fluorescence at 665 nm and 620 nm×10,000) or “Ratio 668/620×10,000” (ratio of fluorescence at 668 nm and 620 nm×10,000). Data in graphs were represented in Mean±SD. Dose-dependent responses were fitted with sigmoidal dose-response curves allowing variable slopes using GraphPad Prism versions 4, 5 or 6 (Graphpad Prism).

Sprague Dawley rats [2] = assay: Rat intraplantar injection model, von Frey test (Example 9); format: in vivo, Sprague Dawley rat; conditions: 1 μg/mL or 100 μg/mL; 15 and 90 minutes post-injection
Experimental: as §1, §2
Mechanical pain sensitivity was tested using the von Frey test, which measures the withdrawal force threshold of the animals. The lower the force applied represents a greater sensitivity to the stimulus. The von Frey test was performed 15 and 90 minutes post-Test Item injection.

clinical score (Sprague Dawley rats [1]; 1 μg/mL (cycle 2), both time points (15 and 90 min)): non-zero
clinical score (Sprague Dawley rats [1]; 100 μg/mL (cycle 1), 15 min): non-zero
clinical score vs PBS group (Sprague Dawley rats [1]; 100 μg/mL (cycle 1), 90 minutes post-injection): non-zero
EC50 (DP1 receptor): 0.078 nM
von Frey withdrawal force threshold vs PBS-treated group (Sprague Dawley rats [2]): reduced withdrawal force threshold
Compound: CCCCC[C@H](O)CC[C@@H]1[C@H]2Cc3cccc(OCC(=O)O)c3C[C@H]2C[C@H]1O [Treprostinil]
clinical score vs PBS treated group (Sprague Dawley rats [1]; 1 μg/mL or 100 μg/mL, 15 and 90 minutes post-injection): statistically significant increase in the clinical score
